Experiments:
[1] = Oxygen radical absorbance capacity (ORAC), β-carotene retention; assay type: biochemical; conditions: concentration was 0.005 mg/mL (footnote); PBS control 28
Protocol: A solution of 2,2′-azobis-(2-amidinopropane) dihydrochloride (AAPH, 0.5 M) was prepared in degassed distilled water and a β-carotene solution was prepared by centrifuging 10 mg of β-carotene in 10 mL of acetone followed by a one-fold dilution of the supernatant with the same solvent. β-carotene (60 μL) and 0.6% (w/v) phosphate buffered Tween 20 containing 0.3% (w/v) of linoleic acid (120 μL) were mixed with 935 μL of PBS in a quartz cuvette and incubated for 2 min at 50° C. 10 μL of sample solution (final assay concentration of 454 μg/mL) and AAPH (25 μL) were added into the cuvette and the reaction was monitored for 10 min using a spectrophotometer set at 452 nm. Quercetin was used as a reference antioxidant. Cuvette was maintained at 50° C. all times except when the measurement is being taken. Percentage β-carotene retention was calculated using the following equation: % β-carotene retention=100−[(Abs0 min−Abs5 min)*100 Abs0 min]

[2] = Inhibition (%) of ABTS radical generation; assay type: biochemical; conditions: concentration was 0.005 mg/mL (footnote)
Protocol: All reagents used in this assay were prepared in phosphate buffered saline (PBS, 10 mM, pH 7.4). Sample solutions were prepared in PBS.
[…] Reaction was triggered by the addition of 120 μL of 10 mM hydrogen peroxide. Absorbance data of the reaction mixture were recorded after 10 min using a spectrophotometer set at 734 nm. Quercetin was used as a reference antioxidant.

[3] = Total reducing power (pre-formed ABTS radical); assay type: biochemical; conditions: concentration was 0.005 mg/mL (footnote)
Protocol: ABTS radical was generated by mixing 5 mL of an aqueous ABTS solution (7 mM) and 88 μL of a potassium persulfate solution (140 mM), followed by the standing in the dark for 6 h. This stock solution (1.1 mL) was diluted to 90 mL with PBS (pH 7.4) and the absorbance adjusted to 0.83. […] Absorbance at 734 nm was measured after 10 min. Quercetin was used as a reference antioxidant. Total reducing power (TRP, %) was calculated using the following equations: […]+PBS(%)=[(Abs0 min-Abs10 min)/Abs0 min]*100 TRPSample=([…]

[4] = Stability determination of pyruvate (pyruvate loss with or without hydrogen peroxide); assay type: physicochemical

Row | SMILES | % TRP (ORAC in terms of β-Carotene retention) [1] | % inhibition of ABTS radical generation [2] | % TRP (total reducing power) [3] | pyruvate loss ([4]; with added hydrogen peroxide) | pyruvate loss ([4]; without added hydrogen peroxide)
1 | O=c1c(O)c(-c2ccc(O)c(O)c2)oc2cc(O)cc(O)c12 [Quercetin] | 55% | 23% | 30% | – | –
2 | CC(=O)C(=O)O [pyruvic acid] | – | – | – | 11% | 26%
